± gives the expanded uncertainty stated by the source.
Settings: Liquid; for vapor or sublimation pressure: Closed cell (Static) method; for mass density: 101.33 kPa, Vibrating tube method

OCC(F)(F)C(F)(F)C(F)(F)C(F)(F)F [2,2,3,3,4,4,5,5,5-nonafluoropentan-1-ol]
Settings | mass density [kg/m3] | vapor or sublimation pressure [kPa]
278.14 K | – | 0.2236 ± 0.011
278.15 K | 1689.58 ± 5.6 | –
279.15 K | 1687.71 ± 5.6 | –
280.15 K | 1685.83 ± 5.6 | –
281.15 K | 1683.95 ± 5.6 | –
282.15 K | 1682.07 ± 5.5 | –
283.1 K | – | 0.3363 ± 0.011
283.15 K | 1680.18 ± 5.5 | –
284.15 K | 1678.29 ± 5.5 | –
285.15 K | 1676.39 ± 5.5 | –
286.15 K | 1674.48 ± 5.5 | –
287.15 K | 1672.58 ± 5.5 | –
288.07 K | – | 0.502 ± 0.012
288.15 K | 1670.67 ± 5.5 | –
289.15 K | 1668.76 ± 5.5 | –
290.15 K | 1666.84 ± 5.4 | –
291.15 K | 1664.91 ± 5.4 | –
292.15 K | 1662.98 ± 5.4 | –
293.06 K | – | 0.7329 ± 0.013
293.15 K | 1661.05 ± 5.4 | –
294.15 K | 1659.11 ± 5.4 | –
295.15 K | 1657.16 ± 5.4 | –
296.15 K | 1655.22 ± 5.4 | –
297.15 K | 1653.26 ± 5.4 | –
298.09 K | – | 1.07 ± 0.016
298.15 K | 1651.3 ± 5.3 | –
299.15 K | 1649.34 ± 5.3 | –
300.15 K | 1647.37 ± 5.3 | –
301.15 K | 1645.39 ± 5.3 | –
302.15 K | 1643.41 ± 5.3 | –
303.1 K | – | 1.531 ± 0.018
303.15 K | 1641.42 ± 5.3 | –
304.15 K | 1639.43 ± 5.3 | –
305.15 K | 1637.43 ± 5.3 | –
306.15 K | 1635.43 ± 5.2 | –
307.15 K | 1633.42 ± 5.2 | –
308.06 K | – | 2.152 ± 0.021
308.15 K | 1631.4 ± 5.2 | –
309.15 K | 1629.38 ± 5.2 | –
310.15 K | 1627.35 ± 5.2 | –
311.15 K | 1625.32 ± 5.2 | –
312.15 K | 1623.28 ± 5.2 | –
313.02 K | – | 2.979 ± 0.026
313.15 K | 1621.23 ± 5.1 | –
314.15 K | 1619.17 ± 5.1 | –
315.15 K | 1617.12 ± 5.1 | –
316.15 K | 1615.05 ± 5.1 | –
317.15 K | 1612.98 ± 5.1 | –
317.98 K | – | 4.071 ± 0.032
318.15 K | 1610.9 ± 5.1 | –
319.15 K | 1608.81 ± 5.1 | –
320.15 K | 1606.72 ± 5.1 | –
321.15 K | 1604.62 ± 5 | –
322.15 K | 1602.52 ± 5 | –
322.99 K | – | 5.496 ± 0.041
323.15 K | 1600.4 ± 5 | –
324.15 K | 1598.29 ± 5 | –
325.15 K | 1596.16 ± 5 | –
326.15 K | 1594.03 ± 5 | –
327.15 K | 1591.88 ± 5 | –
327.95 K | – | 7.315 ± 0.047
328.15 K | 1589.74 ± 4.9 | –
329.15 K | 1587.59 ± 4.9 | –
330.15 K | 1585.42 ± 4.9 | –
331.15 K | 1583.26 ± 4.9 | –
332.15 K | 1581.08 ± 4.9 | –
333.15 K | 1578.9 ± 4.9 | –
334.15 K | 1576.7 ± 4.9 | –
335.15 K | 1574.51 ± 4.9 | –
336.15 K | 1572.3 ± 4.8 | –
337.15 K | 1570.09 ± 4.8 | –
338.15 K | 1567.87 ± 4.8 | –
339.15 K | 1565.64 ± 4.8 | –
340.15 K | 1563.41 ± 4.8 | –
341.15 K | 1561.17 ± 4.8 | –
342.15 K | 1558.91 ± 4.8 | –
343.15 K | 1556.65 ± 4.7 | –
344.15 K | 1554.39 ± 4.7 | –
345.15 K | 1552.11 ± 4.7 | –
346.14 K | 1549.83 ± 4.7 | –
347.15 K | 1547.45 ± 4.7 | –
348.15 K | 1545.15 ± 4.7 | –
349.15 K | 1542.85 ± 4.7 | –
350.15 K | 1540.53 ± 4.6 | –
351.15 K | 1538.2 ± 4.6 | –
352.15 K | 1535.87 ± 4.6 | –
353.15 K | 1533.52 ± 4.6 | –

OCC(F)(F)C(F)(F)C(F)(F)C(F)(F)C(F)(F)F [2,2,3,3,4,4,5,5,6,6,6-undecafluorohexan-1-ol]
Settings | mass density [kg/m3] | vapor or sublimation pressure [kPa]
278.14 K | – | 0.0688 ± 0.01
278.15 K | 1746.4 ± 2.8 | –
279.15 K | 1744.56 ± 2.8 | –
280.15 K | 1742.69 ± 2.8 | –
281.15 K | 1740.82 ± 2.8 | –
282.15 K | 1738.95 ± 2.8 | –
283.1 K | – | 0.1098 ± 0.01
283.15 K | 1737.07 ± 2.8 | –
284.15 K | 1735.19 ± 2.8 | –
285.15 K | 1733.3 ± 2.7 | –
286.15 K | 1731.41 ± 2.7 | –
287.15 K | 1729.52 ± 2.7 | –
288.08 K | – | 0.1712 ± 0.01
288.15 K | 1727.62 ± 2.7 | –
289.15 K | 1725.71 ± 2.7 | –
290.15 K | 1723.81 ± 2.7 | –
291.15 K | 1721.89 ± 2.7 | –
292.15 K | 1719.98 ± 2.7 | –
293.08 K | – | 0.2615 ± 0.011
293.15 K | 1718.06 ± 2.7 | –
294.15 K | 1716.13 ± 2.7 | –
295.15 K | 1714.2 ± 2.7 | –
296.15 K | 1712.27 ± 2.7 | –
297.15 K | 1710.32 ± 2.7 | –
298.13 K | – | 0.3944 ± 0.011
298.15 K | 1708.38 ± 2.7 | –
299.15 K | 1706.43 ± 2.7 | –
300.15 K | 1704.47 ± 2.7 | –
301.15 K | 1702.5 ± 2.6 | –
302.15 K | 1700.54 ± 2.6 | –
303.1 K | – | 0.5819 ± 0.012
303.15 K | 1698.57 ± 2.6 | –
304.15 K | 1696.59 ± 2.6 | –
305.15 K | 1694.61 ± 2.6 | –
306.15 K | 1692.62 ± 2.6 | –
307.15 K | 1690.62 ± 2.6 | –
308.06 K | – | 0.8405 ± 0.014
308.15 K | 1688.62 ± 2.6 | –
309.15 K | 1686.62 ± 2.6 | –
310.15 K | 1684.61 ± 2.6 | –
311.15 K | 1682.59 ± 2.6 | –
312.15 K | 1680.57 ± 2.6 | –
313.01 K | – | 1.205 ± 0.017
313.15 K | 1678.54 ± 2.6 | –
314.15 K | 1676.51 ± 2.6 | –
315.15 K | 1674.47 ± 2.6 | –
316.15 K | 1672.43 ± 2.6 | –
317.15 K | 1670.38 ± 2.5 | –
317.98 K | – | 1.708 ± 0.018
318.15 K | 1668.32 ± 2.5 | –
319.15 K | 1666.26 ± 2.5 | –
320.15 K | 1664.19 ± 2.5 | –
321.15 K | 1662.11 ± 2.5 | –
322.15 K | 1660.03 ± 2.5 | –
322.93 K | – | 2.349 ± 0.022
323.15 K | 1657.95 ± 2.5 | –
324.15 K | 1655.85 ± 2.5 | –
325.15 K | 1653.75 ± 2.5 | –
326.15 K | 1651.65 ± 2.5 | –
327.15 K | 1649.54 ± 2.5 | –
327.93 K | – | 3.25 ± 0.025
328.15 K | 1647.42 ± 2.5 | –
329.15 K | 1645.29 ± 2.5 | –
330.15 K | 1643.16 ± 2.5 | –
331.15 K | 1641.02 ± 2.5 | –
332.15 K | 1638.87 ± 2.5 | –
333.15 K | 1636.72 ± 2.4 | –
334.15 K | 1634.57 ± 2.4 | –
335.15 K | 1632.41 ± 2.4 | –
336.15 K | 1630.23 ± 2.4 | –
337.15 K | 1628.06 ± 2.4 | –
338.15 K | 1625.88 ± 2.4 | –
339.15 K | 1623.69 ± 2.4 | –
340.15 K | 1621.49 ± 2.4 | –
341.15 K | 1619.29 ± 2.4 | –
342.15 K | 1617.08 ± 2.4 | –
343.15 K | 1614.86 ± 2.4 | –
344.15 K | 1612.64 ± 2.4 | –
345.15 K | 1610.41 ± 2.4 | –
346.15 K | 1608.17 ± 2.4 | –
347.15 K | 1605.92 ± 2.4 | –
348.15 K | 1603.67 ± 2.3 | –

Reference: the NIST ThermoML archive (doi:10.1016/j.fluid.2016.06.011)
